Data from patent US20230159453A1 (COCRYSTAL PHARMA, INC., priority 2020, published 2023).

The molecules below were run against SARS2 protease (Severe acute respiratory syndrome coronavirus 2, UniProt P0DTD1) (assay: SARS-CoV-2 protease inhibition assay (SARS2 FRET protease assay)). Settings: SARS-CoV-2 protease 25 nM, FRET, peptide substrate 1.3 μM, 30 minutes at 30° C., compounds 20 μM to 1.0 nM; read-out: IC50.
Type: biochemical

| Structure (SMILES) | IC50 |
| --- | --- |
| CC(C)C[C@H](NC(=O)OC1CCN(C(=O)OC(C)(C)C)CC1)C(=O)N[C@@H](C[C@@H]1CCNC1=O)C(O)S(=O)(=O)O (stereo partly drawn) [Compound C51, (2S)-2-((S)-2-((((1-(tert-butoxycarbonyl)piperidin-4-yl)oxy)carbonyl)amino)-4-methylpentanamido)-1-hydroxy-3-((S)-2-oxopyrrolidin-3-yl) propane-1-sulfonate] | 115 nM |
| CC(C)C[C@H](NC(=O)OC1(Cc2ccccc2)CCC1)C(=O)N[C@H](C=O)C[C@@H]1CCNC1=O [Compound C56, 1-benzylcyclobutyl ((S)-4-methyl-1-oxo-1-(((S)-1-oxo-3-((S)-2-oxopyrrolidin-3-yl)propan-2-yl)amino)pentan-2-yl)carbamate] | 600 nM |
| CCCC[C@H](NC(=O)OC(c1ccccc1)C(C)(C)c1cccc(Cl)c1)C(=O)N[C@@H](CC1CCNC1=O)C(=O)C(N)=O (stereo partly drawn) [Compound C164, 2-(3-Chlorophenyl)-2-methyl-1-phenylpropyl ((S)-1-(((S)-4-amino-3,4-dioxo-1-((S)-2-oxopyrrolidin-3-yl)butan-2-yl)amino)-1-oxohexan-2-yl) carbamate] | 144 nM |
| CC1(C)CC(CC(NC(=O)[C@H](CC2CCCCC2)NC(=O)OC(c2cccc(Cl)c2)C(C)(C)c2cccc(Cl)c2)C(=O)C(N)=O)C(=O)N1 (stereo partly drawn) [Compound C288] | 2230 nM |
| CC(=O)N1CC2(CC(CC(C=O)NC(=O)[C@H](CC(C)C)NC(=O)OCc3cccc(Cl)c3)C(=O)N2)C1 (stereo partly drawn) [Compound C102, 3-chlorobenzyl ((2S)-1-((1-(2-acetyl-6-oxo-2,5-diazaspiro[3.4]octan-7-yl)-3-oxopropan-2-yl)amino)-4-methyl-1-oxopentan-2-yl)carbamate] | 118 nM |
| CC(C)C[C@H](NC(=O)OC(Cc1ccccc1)c1ccccc1)C(=O)N[C@@H](C[C@@H]1CCNC1=O)C(=O)C(=O)N1CCNCC1 (stereo partly drawn) [Compound C283] | > 20000 nM |
| CC(C)C[C@H](NC(=O)OC(c1ccc(Cl)cc1)C1(c2cccc(Cl)c2)CC1)C(=O)N[C@@H](C[C@@H]1CCNC1=O)C(=O)C(=O)NC1CC1 (stereo partly drawn) [Compound C201, (4-Chlorophenyl)(1-(3-chlorophenyl)cyclopropyl) methyl ((S)-1-(((S)-4-(cyclopropylamino)-3,4-dioxo-1-((S)-2-oxopyrrolidin-3-yl)butan-2-yl)amino)-4-methyl-1-oxopentan-2-yl) carbamate] | 4.4 nM |
| CC(C)(c1cccc(Cl)c1)C(OC(=O)N[C@@H](CC1CCCCC1)C(=O)N[C@@H](C[C@@H]1CCNC1=O)C(=O)C(N)=O)c1ccccc1 (stereo partly drawn) [Compound C113, 2-(3-Chlorophenyl)-2-methyl-1-phenylpropyl ((S)-1-(((S)-4-amino-3,4-dioxo-1-((S)-2-oxopyrrolidin-3-yl)butan-2-yl)amino)-3-cyclohexyl-1-oxopropan-2-yl) carbamate] | 133 nM |
| O=C(N[C@@H](CC1CCCCC1)C(=O)N[C@@H](C[C@@H]1CCNC1=O)C(=O)C(=O)NC1CC1)OC1CCCC1Cc1cccc(Cl)c1 (stereo partly drawn) [Compound C151, 2-(3-Chlorobenzyl)cyclopentyl ((S)-3-cyclohexyl-1-(((S)-4-(cyclopropylamino)-3,4-dioxo-1-((S)-2-oxopyrrolidin-3-yl)butan-2-yl)amino)-1-oxopropan-2-yl)carbamate] | 3670 nM |
| O=C[C@H](C[C@@H]1CCNC1=O)NC(=O)[C@H](CC1CCCCC1)NC(=O)O[C@@H]1CCC[C@H]1Cc1cccc(Cl)c1 [Compound C262] | 20 nM |
| CC(C)C[C@H](NC(=O)OC1CCCC1Cc1cccc(Cl)c1)C(=O)N[C@H](C=O)C[C@@H]1CCNC1=O (stereo partly drawn) [Compound C152, 2-(3-chlorobenzyl)cyclopentyl ((S)-4-methyl-1-oxo-1-(((S)-1-oxo-3-((S)-2-oxopyrrolidin-3-yl)propan-2-yl)amino)pentan-2-yl)carbamate] | 11.8 nM |
| COc1cccc(CC2(OC(=O)N[C@@H](CC(C)C)C(=O)N[C@@H](C[C@@H]3CCNC3=O)C(=O)C(N)=O)CC2)c1 [Compound C93, 1-(3-Methoxybenzyl) cyclopropyl ((S)-1-(((S)-4-amino-3,4-dioxo-1-((S)-2-oxopyrrolidin-3-yl)butan-2-yl)amino)-4-methyl-1-oxopentan-2-yl) carbamate] | > 20000 nM |
| CC(C)C[C@H](NC(=O)OC(c1ccccc1)C(C)(C)c1cccc(Cl)c1)C(=O)N[C@@H](C[C@@H]1CCNC1=O)C(=O)C(=O)N1CCN(C)CC1 (stereo partly drawn) [Compound C248] | 6930 nM |
| CC(C)C[C@H](NC(=O)N(Cc1ccccc1)C1CCN(C(=O)OC(C)(C)C)CC1)C(=O)N[C@@H](C[C@@H]1CCNC1=O)C(=O)C(=O)NC1CC1 [Compound C98, Tert-butyl 4-(1-benzyl-3-((S)-1-(((S)-4-(cyclopropylamino)-3,4-dioxo-1-((S)-2-oxopyrrolidin-3-yl)butan-2-yl)amino)-4-methyl-1-oxopentan-2-yl)ureido)piperidine-1-carboxylate] | 2200 nM |
| O=C(N[C@@H](CC1CCCCC1)C(=O)N[C@@H](C[C@@H]1CCNC1=O)C(=O)C(=O)NC1CC1)OC(Cc1cccc(Cl)c1)c1ccccc1 (stereo partly drawn) [Compound C158] | 2610 nM |
| O=C[C@H](C[C@@H]1CCNC1=O)NC(=O)[C@H](CC1CCCCC1)NC(=O)O[C@H]1CCC[C@H]1Cc1cccc(Cl)c1 [Compound C224, (1S,2S)-2-(3-Chlorobenzyl) cyclopentyl ((S)-3-cyclohexyl-1-oxo-1-(((S)-1-oxo-3-((S)-2-oxopyrrolidin-3-yl)propan-2-yl)amino)propan-2-yl) carbamate] | 183 nM |
| O=CC(CC1CC2(CCC2)NC1=O)NC(=O)[C@H](CC1CCCCC1)NC(=O)OCc1cccc(Cl)c1 (stereo partly drawn) [Compound C229, 3-Chlorobenzyl ((2S)-3-cyclohexyl-1-oxo-1-((1-oxo-3-(6-oxo-5-azaspiro[3.4]octan-7-yl)propan-2-yl)amino)propan-2-yl)carbamate] | 0.8 nM |
| O=CC(CC1CC(Cc2ccccc2)NC1=O)NC(=O)[C@H](CC1CCCCC1)NC(=O)OCc1cccc(Cl)c1 (stereo partly drawn) [Compound C52, 3-Chlorobenzyl ((2S)-1-((1-(5-benzyl-2-oxopyrrolidin-3-yl)-3-oxopropan-2-yl)amino)-3-cyclohexyl-1-oxopropan-2-yl)carbamate] | 500 nM |
| CC(C)(c1cccc(Cl)c1)C(OC(=O)N[C@@H](CC1CCCCC1)C(=O)N[C@H](C=O)C[C@@H]1CCNC1=O)c1ccc(F)cc1 (stereo partly drawn) [Compound C137, 2-(3-Chlorophenyl)-1-(4-fluorophenyl)-2-methylpropyl ((S)-3-cyclohexyl-1-oxo-1-(((S)-1-oxo-3-((S)-2-oxopyrrolidin-3-yl)propan-2-yl)amino)propan-2-yl) carbamate] | 43.6 nM |
| O=C(N[C@@H](CC1CCCCC1)C(=O)N[C@@H](CC1CC2(CCCCC2)NC1=O)C(=O)C(=O)N1CCCC1)c1cc2ccccc2[nH]1 (stereo partly drawn) [Compound C171, N-((2S)-3-cyclohexyl-1-((3,4-dioxo-1-(2-oxo-1-azaspiro[4.5]decan-3-yl)-4-(pyrrolidin-1-yl)butan-2-yl)amino)-1-oxopropan-2-yl)-1H-indole-2-carboxamide] | 11000 nM |
| CC(C)C[C@H](NC(=O)OC(c1ccccc1)C(C)(C)c1cccc(Cl)c1)C(=O)N[C@@H](C[C@@H]1CCNC1=O)C(=O)CCl (stereo partly drawn) [Compound C209, 2-(3-Chlorophenyl)-2-methyl-1-phenylpropyl ((S)-1-(((S)-4-chloro-3-oxo-1-((S)-2-oxopyrrolidin-3-yl)butan-2-yl)amino)-4-methyl-1-oxopentan-2-yl)carbamate] | 1870 nM |
